Source: US20070117836A1, “NAPTHALIMIDE DERIVATIVES, METHODS FOR THEIR PRODUCTION AND PHARMACEUTICAL COMPOSITIONS THEREFROM” (priority 2004, published 2007)
Read-outs that look alike come from different tables or passages of the source.

What was measured:
[1] = tested on: Six human cancer cell lines (Hs683, U-373MG, HCT-15, LoVo, A549, MCF-7); test: MTT test of overall cell growth; assay type: cell-based
Procedure: In order to characterize the in vitro activity of the compounds of the invention, MTT tests were performed to indirectly and rapidly measure, i.e. within 5 days, the effect of such a compound on the overall cell growth. The test measures the number of metabolically active living cells that are able to transform the yellow product 3-(4,5-dimethylthiazol-2-yl)-2,5-diphenyl tetrazolium bromide (herein referred as MTT) into the blue product formazan dye by mitochondrial reduction. The amount of formazan obtained at the end of the experiment was measured by means of a spectrophotometer and is directly proportional to the number of living cells. Determination of the optical density enables a quantitative measurement of the effect of the investigated compounds as compared to the control condition (untreated cells) and/or to other reference compounds (in casu mitonafide and amonafide).
Six human cancer cell lines described in table 1 were used in the MTT tests. These cell lines cover four histological cancer types, being glioma, colon, lung and breast cancers. Cells were allowed to grow in 96-well micro-wells with a flat bottom with an amount of 100 μl of cell suspension per well with 1,000 to 4,000 cells/well depending on the cell type used. Each cell line was seeded in an MEM 5% serum culture medium.
The detailed experimental procedure was as follows: after a 24-hour period of incubation at 37° C., the culture medium was replaced by 100 μl of fresh medium in which the compound to be tested was dissolved at the following molar concentrations: 10^−9 M, 5.10^−9 M, 10^−8 M, 5.10^−8 M, 10^−7 M, 5.10^−7 M, 10^−6 M, 5.10^−6 M and 10^−5 M. Each experiment was repeated 6 times.
After 72 hours of incubation at 37° C. with (experimental conditions) or without (control condition) the compound to be tested, the medium was replaced by 100 μl MTT dissolved in RPMI at a concentration of 1 mg/ml. The micro-wells were subsequently incubated during 3 hours at 37° C. and centrifuged at 400 g during 10 minutes. MTT was removed and formazan crystals formed were dissolved in 100 μl DMSO. The micro-wells were shaken for 5 minutes and read on a spectrophotometer at wavelengths of 570 nm (maximum formazan absorbance) and 630 nm (background noise).
For each experimental condition, the mean optical density was calculated, as well as the percentage of remaining living cells in comparison with the control.

[2] = in vivo; conditions: mouse
Procedure: The maximum tolerated dose (herein after MTD) is defined as the maximum amount of a given drug which can be administered acutely (i.e. in one intraperitoneal, intravenous, subcutaneous or oral single dose) to healthy animals, i.e. animals not grafted with tumors. The survival times and weights of the animals are recorded up to 14 days post injection. Five different doses of each drug are used for the determination of the MTD index. […] Each experimental group comprised 3 mice for the determination of the MTD index (expressed in mg/kg).

[3] = Homo sapiens, 72 h, range of molar concentrations giving 50% inhibition of overall tumor cells growth, MTT, 72 hours incubation, six human cancer cell lines, read-out: IC50
[4] = range of molar concentrations giving 50% inhibition of overall tumor cells growth, MTT, 72 hours incubation, six human cancer cell lines, hydrochloride, read-out: IC50
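Throughout, for MTD: highest single acute dose (intraperitoneal, intravenous, subcutaneous or oral) tolerated by tumor-free mice, assessed across five dose levels per drug.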

| Compound | IC50 [1, 3] [µM] | MTD at 14 days [2] [mg/kg] | also measured |
| --- | --- | --- | --- |
| CN(C)CCN1C(=O)c2cccc3cc(NCc4ccc5c(c4)OCCO5)cc(c23)C1=O [Example 42] | 5 to 10 | > 80 | – |
| COc1cc(C=Nc2cc3c4c(cccc4c2)C(=O)N(CCN(C)C)C3=O)ccc1O [Example 18, 5-{[(1Z)-(4-hydroxy-3-methoxyphenyl)methylene]amino}-2-[2-(dimethylamino)ethyl]l-1H-benzo[de]isoquinoline-1,3(2H)-dione] | > 10 | > 80 | – |
| COc1ccc(CC(=O)Nc2cc3c4c(cccc4c2)C(=O)N(CCN(C)C)C3=O)cc1 [Example 15, 2-(4-methoxyphenyl)-N-{2-[2-(dimethyl-amino)ethyl]-1,3-dioxo-2,3-dihydro-1H-benzo[de]isoquinolin-5-yl}acetamide] | 1 to 5 | – | – |
| COc1ccc(OC(=O)Nc2cc3c4c(cccc4c2)C(=O)N(CCN(C)C)C3=O)cc1 [Example 31] | – | – | IC50 ([1]; Homo sapiens, 72 h): 10 µM |
| COc1ccc(NC(=O)Nc2cc3c4c(cccc4c2)C(=O)N(CCN(C)C)C3=O)cc1 [Example 30] | 1 to 5 | – | – |
| CN(C)CCN1C(=O)c2cccc3cc(NCc4ccccc4OC4OC(CO)C(O)C(O)C4O)cc(c23)C1=O (stereo not drawn) [Example 37] | 5 to 10 | > 80 | – |
| CN(C)CCN1C(=O)c2cccc3cc(NC(=S)Nc4ccc(OC(F)(F)F)cc4)cc(c23)C1=O [Example 21] | 1 to 5 | – | – |
| CN(C)CCN1C(=O)c2cccc3cc(N=Cc4ccc(C#N)cc4)cc(c23)C1=O [Example 28, 2-[2-dimethylamino)ethyl]-5-{[(1Z)-(4-cyano-phenyl)-5-ylmethylene]amino}-1H-benzo[de]isoquinolin-1,3(2H)-dione] | 5 to 10 | > 80 | – |
| CN(C)CCN1C(=O)c2cccc3cc(NCc4ccc5c(c4)OCO5)cc(c23)C1=O [Example 36, 5-{[1,3-benzodioxol-5-ylmethyl]amino}-N-(2-[2-dimethylamino)ethyl]-1H-benzo[de]isoquinolin-1,3(2H)-dione] | 5 to 10 | > 80 | – |
| CN(C)CCN1C(=O)c2cccc3cc(NC(=O)NC(=O)c4ccccc4)cc(c23)C1=O [Example 3, N-[({2-[2-(dimethylamino)ethyl]-1.3-dioxo-2,3-dihydro-1H-benzo[de]isoquinolin-5-yl}amino)carbonyl]benzamide] | 1 to 5 | – | MTD at 14 days ([2]; intraperitoneal): 80 mg/kg |
| CCOC(=O)c1ccc(NC(=O)Nc2cc3c4c(cccc4c2)C(=O)N(CCN(C)C)C3=O)cc1 [Example 8] | 1 to 5 | – | MTD at 14 days ([2]; intraperitoneal): > 160 mg/kg |
| CN(C)CCN1C(=O)c2cccc3cc(NC(=S)NCc4ccc5c(c4)OCO5)cc(c23)C1=O [Example 22] | > 10 | > 80 | – |
| CN(C)CCN1C(=O)c2cccc3cc(NCc4ccc5c(c4)OCO5)cc(c23)C1=O.Cl [Example 38, 5-{[1,3-benzodioxol-5-ylmethy]amino}-N-(2-[2-dimethylamino)ethyl]-1H-benzo[de]isoquinolin-1,3(2H)-dione hydrochloride] | – | > 80 | – |
| CN(C)CCN1C(=O)c2cccc3cc(NC(=O)CCCCl)cc(c23)C1=O [Example 12, 4-chloro-N-{2-[2-(dimethylamino)ethyl]-1,3-dioxo-2,3-dihydro-1H-benzo[de]isoquinolin-5-yl}butanamide] | > 10 | – | – |
| CN(C)CCN1C(=O)c2cccc3cc(NCc4ccccc4OC4OC(CO)C(O)C(O)C4O)cc(c23)C1=O.Cl (stereo not drawn) [Example 39] | – | > 80 | – |
| CN(C)CCN1C(=O)c2cccc3cc(/N=C\c4cc(O)ccc4O)cc(c23)C1=O.Cl [Example 34, 2-[2-dimethylamino)ethyl]-5-{[(1Z)-(2,5-dihydroxyphenyl)methylene]amino}-1H-benzo[de]isoquinolin-1,3(2H)-dione hydrochloride] | – | – | IC50 ([1]; read-out: IC50): 1 to 5 µM |

| Compound | IC50 [1, 3] [µM] | MTD at 14 days [2] [mg/kg] | also measured |
| --- | --- | --- | --- |
| CN(C)CCN1C(=O)c2cccc3cc(NC(=O)Nc4ccc(Cl)cc4)cc(c23)C1=O [Example 6, N-[2-[2-(dimethylamino)ethyl]-1,3-dioxo-2,3-dihydro-1H-benzo[de]isoquinolin-5-yl]-N′-(4-chlorophenyl)urea] | 1 to 5 | – | MTD at 14 days ([2]; intraperitoneal): > 160 mg/kg |
| CCOC(=O)NC(=O)Nc1cc2c3c(cccc3c1)C(=O)N(CCN(C)C)C2=O [Example 4, ethyl({2-[2-(dimethylamino)ethyl]-1.3-dioxo-2,3-dihydro-1H-benzo[de]isoquinolin-5-yl}amino)carbonylcarbamate] | 1 to 5 | 80 | – |
| CCOC(=O)CC(=O)Nc1cc2c3c(cccc3c1)C(=O)N(CCN(C)C)C2=O [Example 14, ethyl 3-({2-[2-(dimethylamino)ethyl]-1,3-dioxo-2,3-dihydro-1H-benzo[de]isoquinolin-5-yl}amino)-3-oxopropanoate] | > 10 | – | – |
| CN(C)CCN1C(=O)c2cccc3cc(NC(=O)c4ccccc4)cc(c23)C1=O [Example 32, 2-[2-(dimethylamino)ethyl]-1,3-dioxo-2,3-dihydro-1H-benzo[de]isoquinolin-5-ylbenzamide] | > 10 | – | – |
| CN(C)CCN1C(=O)c2cccc3cc(NC(=O)NC(=O)CCl)cc(c23)C1=O [Example 1, 2-chloro-N-[({2-[2-(dimethylamino)ethyl]-1,3-dioxo-2,3-dihydro-1H-benzo[de]isoquinolin-5-yl}amino)carbonyl]acetamide] | 1 to 5 | – | – |
| CN(C)CCN1C(=O)c2cccc3cc(NCc4cc5c(cc4[N+](=O)[O-])OCO5)cc(c23)C1=O.Cl [Example 41] | – | > 80 | – |
| CN(C)CCN1C(=O)c2cccc3cc(NC(=O)C(Cl)(Cl)Cl)cc(c23)C1=O [Example 16, 2,2,2-trichloro-N-{2-[2-(dimethylamino)ethyl]-1,3-dioxo-2,3-dihydro-1H-benzo[de]isoquinolin-5-yl}acetamide] | > 10 | > 80 | – |
| CN(C)CCN1C(=O)c2cccc3cc(NC(=O)NCCCl)cc(c23)C1=O [Example 5, N-[2-[2-(dimethylamino)ethyl]-1,3-dioxo-2,3-dihydro-1H-benzo[de]isoquinolin-5-yl]-N′-(2-chloroethyl)urea] | – | > 160 | IC50 ([1]; Homo sapiens, 72 h): 1 to 5 µM |
| CN(C)CCN1C(=O)c2cccc3cc(NC(=S)Nc4ccc(Cl)cc4)cc(c23)C1=O [Example 26, N-[2-[2-(dimethylamino)ethyl]-1,3-dioxo-2,3-dihydro-1H-benzo[de]isoquinolin-5-yl]-N′-(4-chlorophenyl)thiourea] | > 10 | > 80 | – |
| CCOC(=O)CCC(=O)Nc1cc2c3c(cccc3c1)C(=O)N(CCN(C)C)C2=O [Example 11] | > 10 | – | MTD at 14 days ([2]; intraperitoneal): > 160 mg/kg |
| CN(C)CCN1C(=O)c2cccc3cc(NC(=O)C(F)(F)F)cc(c23)C1=O [Example 29, 2,2,2-trifluoro-N-{2-[2-(dimethylamino)ethyl]-1,3-dioxo-2,3-dihydro-1H-benzo[de]isoquinolin-5-yl}acetamide] | 5 to 10 | – | – |
| CN(C)CCN1C(=O)c2cccc3cc(NC(=S)Nc4ccc(C#N)cc4)cc(c23)C1=O [Example 27, N-[2-[2-(dimethylamino)ethyl]-1,3-dioxo-2,3-dihydro-1H-benzo[de]isoquinolin-5-yl]-N′-(4-cyanophenyl)thiourea] | > 10 | > 80 | – |
| CN(C)CCN1C(=O)c2cccc3cc(NCc4cc5c(cc4[N+](=O)[O-])OCO5)cc(c23)C1=O.Cl [Example 41, 5-{[(benzo([1,3]dioxol-6-nitro)-5-ylmethyl]amino}-N-(2-[2-dimethylamino)ethyl]-1H-benzo[de]isoquinolin-1,3(2H)-dione hydrochloride] | – | – | IC50 [1, 4]: 5 to 10 µM |
| CN(C)CCN1C(=O)c2cccc3cc(NC(=O)Cc4ccc(Cl)cc4)cc(c23)C1=O [Example 13, 2-(4-chlorophenyl)-N-{2-[2-(dimethylamino)ethyl]-1,3-dioxo-2,3-dihydro-1H-benzo[de]isoquinolin-5-yl}acetamide] | 5 to 10 | – | – |
| COc1cc(/C=N\c2cc3c4c(cccc4c2)C(=O)N(CCN(C)C)C3=O)cc(OC)c1OC [Example 20, 2-[2-(dimethylamino)ethyl]-5-{[(1Z)-(3,4,5-trimethoxyphenyl)methylene]amino}-1H-benzo[de]isoquinoline-1,3(2H)-dione] | 5 to 10 | > 80 | – |
| CN(C)CCN1C(=O)c2cccc3cc(NCc4ccccc4OC4OC(CO)C(O)C(O)C4O)cc(c23)C1=O.Cl (stereo not drawn) [Example 39, 5-{[2-(2-phenoxy-)-6-hydroxymethyltetrahydro-pyran-3,4,5-triol)-5-ylmethyl]amino}-N-(2-[2-dimethylamino)ethyl]-1H-benzo [de]isoquinolin-1,3(2H)-dione hydrochloride] | – | – | IC50 [1, 4]: > 10 µM |
